{"source": "PubChem BioAssay (NCI)", "assay_in_all_cases": "NCI tumour cell line growth inhibition, 48 h", "key": {"NCI-H522 lung": {"tested_on": "NCI-H522 lung"}, "UO-31 renal": {"tested_on": "UO-31 renal"}, "SF-268 CNS": {"tested_on": "SF-268 CNS"}, "K-562 leukemia": {"tested_on": "K-562 leukemia"}, "HT29 colon": {"tested_on": "HT29 colon"}, "RPMI-8226 leukemia": {"tested_on": "RPMI-8226 leukemia"}, "SF-295 CNS": {"tested_on": "SF-295 CNS"}, "M14 melanoma": {"tested_on": "M14 melanoma"}, "LOX IMVI melanoma": {"tested_on": "LOX IMVI melanoma"}, "HS 578T breast": {"tested_on": "HS 578T breast"}, "SK-OV-3 ovarian": {"tested_on": "SK-OV-3 ovarian"}, "SK-MEL-28 melanoma": {"tested_on": "SK-MEL-28 melanoma"}, "HCC-2998 colon": {"tested_on": "HCC-2998 colon"}, "SW-620 colon": {"tested_on": "SW-620 colon"}, "SN12C renal": {"tested_on": "SN12C renal"}, "CCRF-CEM leukemia": {"tested_on": "CCRF-CEM leukemia"}, "BT-549 breast": {"tested_on": "BT-549 breast"}, "MDA-MB-231 breast": {"tested_on": "MDA-MB-231 breast"}, "MDA-MB-435": {"tested_on": "MDA-MB-435"}, "PC-3 prostate": {"tested_on": "PC-3 prostate"}, "KM12 colon": {"tested_on": "KM12 colon"}, "NCI-H460 lung": {"tested_on": "NCI-H460 lung"}, "TK-10 renal": {"tested_on": "TK-10 renal"}, "DU-145 prostate": {"tested_on": "DU-145 prostate"}, "IGROV1 ovarian": {"tested_on": "IGROV1 ovarian"}, "UACC-62 melanoma": {"tested_on": "UACC-62 melanoma"}}, "note": "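Cells were grown in 96-well plates and exposed to each compound for 48 hours at five concentrations; endpoints were interpolated linearly between bracketing concentrations, or set to the highest concentration if not reached. Abbreviation: GI50, concentration required for 50% inhibition of growth. TGI denotes the concentration required for complete inhibition of growth.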", "data": [{"smiles": "ClC(Cl)c1nc(-c2ccco2)n2nc(-c3ccccc3)cc2n1", "values": [{"measurement": "GI50", "setting": "NCI-H522 lung", "value": "> 100", "unit": "µM"}, {"measurement": "TGI", "setting": "NCI-H522 lung", "value": "> 100", "unit": "µM"}, {"measurement": "GI50", "setting": "UO-31 renal", "value": 1.61, "unit": "µM"}, {"measurement": "TGI", "setting": "UO-31 renal", "value": "> 23.9", "unit": "µM"}, {"measurement": "GI50", "setting": "SF-268 CNS", "value": 1.98, "unit": "µM"}, {"measurement": "TGI", "setting": "SF-268 CNS", "value": "> 100", "unit": "µM"}, {"measurement": "GI50", "setting": "K-562 leukemia", "value": "> 39.1", "unit": "µM"}, {"measurement": "TGI", "setting": "K-562 leukemia", "value": "> 100", "unit": "µM"}, {"measurement": "GI50", "setting": "HT29 colon", "value": 0.338, "unit": "µM"}, {"measurement": "TGI", "setting": "HT29 colon", "value": 2.16, "unit": "µM"}, {"measurement": "GI50", "setting": "RPMI-8226 leukemia", "value": 0.54, "unit": "µM"}, {"measurement": "TGI", "setting": "RPMI-8226 leukemia", "value": "> 22.6", "unit": "µM"}, {"measurement": "GI50", "setting": "SF-295 CNS", "value": 1.66, "unit": "µM"}, {"measurement": "TGI", "setting": "SF-295 CNS", "value": 6.13, "unit": "µM"}, {"measurement": "GI50", "setting": "M14 melanoma", "value": "> 100", "unit": "µM"}, {"measurement": "TGI", "setting": "M14 melanoma", "value": "> 100", "unit": "µM"}, {"measurement": "GI50", "setting": "LOX IMVI melanoma", "value": "> 100", "unit": "µM"}, {"measurement": "TGI", "setting": "LOX IMVI melanoma", "value": "> 100", "unit": "µM"}, {"measurement": "GI50", "setting": "HS 578T breast", "value": 2.17, "unit": "µM"}, {"measurement": "TGI", "setting": "HS 578T breast", "value": 7.46, "unit": "µM"}, {"measurement": "GI50", "setting": "SK-OV-3 ovarian", "value": 6.76, "unit": "µM"}, {"measurement": "TGI", "setting": "SK-OV-3 ovarian", "value": "> 100", "unit": "µM"}, {"measurement": "GI50", "setting": "SK-MEL-28 melanoma", "value": 3.76, "unit": "µM"}, {"measurement": "TGI", "setting": "SK-MEL-28 melanoma", "value": "> 100", "unit": "µM"}, {"measurement": "GI50", "setting": "HCC-2998 colon", "value": 0.553, "unit": "µM"}, {"measurement": "TGI", "setting": "HCC-2998 colon", "value": 1.85, "unit": "µM"}, {"measurement": "GI50", "setting": "SW-620 colon", "value": 0.445, "unit": "µM"}, {"measurement": "TGI", "setting": "SW-620 colon", "value": "> 82.5", "unit": "µM"}, {"measurement": "GI50", "setting": "SN12C renal", "value": "> 100", "unit": "µM"}, {"measurement": "TGI", "setting": "SN12C renal", "value": "> 100", "unit": "µM"}, {"measurement": "GI50", "setting": "CCRF-CEM leukemia", "value": "> 100", "unit": "µM"}, {"measurement": "TGI", "setting": "CCRF-CEM leukemia", "value": "> 100", "unit": "µM"}, {"measurement": "GI50", "setting": "BT-549 breast", "value": "> 100", "unit": "µM"}, {"measurement": "TGI", "setting": "BT-549 breast", "value": "> 100", "unit": "µM"}, {"measurement": "GI50", "setting": "MDA-MB-231 breast", "value": 0.791, "unit": "µM"}, {"measurement": "TGI", "setting": "MDA-MB-231 breast", "value": 5.02, "unit": "µM"}, {"measurement": "GI50", "setting": "MDA-MB-435", "value": 2.64, "unit": "µM"}, {"measurement": "TGI", "setting": "MDA-MB-435", "value": "> 100", "unit": "µM"}, {"measurement": "GI50", "setting": "PC-3 prostate", "value": 1.67, "unit": "µM"}, {"measurement": "TGI", "setting": "PC-3 prostate", "value": 16.2, "unit": "µM"}, {"measurement": "GI50", "setting": "KM12 colon", "value": 0.352, "unit": "µM"}, {"measurement": "TGI", "setting": "KM12 colon", "value": 1.71, "unit": "µM"}, {"measurement": "GI50", "setting": "NCI-H460 lung", "value": 0.265, "unit": "µM"}, {"measurement": "TGI", "setting": "NCI-H460 lung", "value": 0.844, "unit": "µM"}, {"measurement": "GI50", "setting": "TK-10 renal", "value": 4.96, "unit": "µM"}, {"measurement": "TGI", "setting": "TK-10 renal", "value": "> 100", "unit": "µM"}, {"measurement": "GI50", "setting": "DU-145 prostate", "value": 0.355, "unit": "µM"}, {"measurement": "TGI", "setting": "DU-145 prostate", "value": 1.41, "unit": "µM"}, {"measurement": "GI50", "setting": "IGROV1 ovarian", "value": "> 63.1", "unit": "µM"}, {"measurement": "TGI", "setting": "IGROV1 ovarian", "value": "> 100", "unit": "µM"}, {"measurement": "GI50", "setting": "UACC-62 melanoma", "value": "> 100", "unit": "µM"}, {"measurement": "TGI", "setting": "UACC-62 melanoma", "value": "> 100", "unit": "µM"}]}]}
